Results published in PubChem BioAssay AID2060893 (Molecular Pharmacology Branch, DTP, NCI, 2025).

System: K86415-001-R-J1-PDC complex spheroids, viability
Test: Anticancer human tumor K86415-001-R-J1-PDC patient-derived lung adenocarcinoma cell line growth inhibition [RAS]
Conditions: for IC50: curve of first compound; for viability, T/C: stronger effect = lower value
Outline: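 Agents were tested in combination matrices in half-log decrements from a top concentration at or near clinical Cmax (10 microM if undetermined). Targets were multi-cell spheroids of tumour lines plus HUVEC and MSC stromal cells.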
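Note: spheroids exposed to agents for seven days before readout.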

SMILES: CC1(O)CCCC1n1c(=O)c(C(F)F)cc2cnc(NC3CCN(S(C)(=O)=O)CC3)nc21 (configuration not stated) + CCn1c(-c2cc(N3CCN(C)CC3)cnc2C(C)OC)c2c3cc(ccc31)-c1csc(n1)CC(NC(=O)C1CC1C)C(=O)N1CCCC(N1)C(=O)OCC(C)(C)C2
- IC50 (second compound 0.000949 µM): 31.6 nM
- IC50 (second compound 0.003 µM): < 31.6 nM
- IC50 (second compound 0.00949 µM): < 31.6 nM
- IC50 (second compound 0.03 µM): < 31.6 nM
- IC50 (second compound 0.0949 µM): < 31.6 nM
- IC50 (second compound 0.3 µM): < 31.6 nM
- viability, T/C (second compound 0.000949 µM, first compound 0.0316 µM): 41.9%
- viability, T/C (second compound 0.000949 µM, first compound 0.1 µM): 36.9%
- viability, T/C (second compound 0.000949 µM, first compound 0.316 µM): 36.7%
- viability, T/C (second compound 0.000949 µM, first compound 1 µM): 47%
- viability, T/C (second compound 0.000949 µM, first compound 3.16 µM): 57.5%
- viability, T/C (second compound 0.000949 µM, first compound 10 µM): 4.99%
- viability, T/C (second compound 0.003 µM, first compound 0.0316 µM): 18.4%
- viability, T/C (second compound 0.003 µM, first compound 0.1 µM): 19.2%
- viability, T/C (second compound 0.003 µM, first compound 0.316 µM): 20%
- viability, T/C (second compound 0.003 µM, first compound 1 µM): 23.5%
- viability, T/C (second compound 0.003 µM, first compound 3.16 µM): 43%
- viability, T/C (second compound 0.003 µM, first compound 10 µM): 4.43%
- viability, T/C (second compound 0.00949 µM, first compound 0.0316 µM): 10.9%
- viability, T/C (second compound 0.00949 µM, first compound 0.1 µM): 8.83%
- viability, T/C (second compound 0.00949 µM, first compound 0.316 µM): 10.7%
- viability, T/C (second compound 0.00949 µM, first compound 1 µM): 11.5%
- viability, T/C (second compound 0.00949 µM, first compound 3.16 µM): 20.2%
- viability, T/C (second compound 0.00949 µM, first compound 10 µM): 5.31%
- viability, T/C (second compound 0.03 µM, first compound 0.0316 µM): 6.62%
- viability, T/C (second compound 0.03 µM, first compound 0.1 µM): 6.19%
- viability, T/C (second compound 0.03 µM, first compound 0.316 µM): 6.48%
- viability, T/C (second compound 0.03 µM, first compound 1 µM): 10.7%
- viability, T/C (second compound 0.03 µM, first compound 3.16 µM): 12.3%
- viability, T/C (second compound 0.03 µM, first compound 10 µM): 4.06%
- viability, T/C (second compound 0.0949 µM, first compound 0.0316 µM): 4.05%
- viability, T/C (second compound 0.0949 µM, first compound 0.1 µM): 4.63%
- viability, T/C (second compound 0.0949 µM, first compound 0.316 µM): 4.78%
- viability, T/C (second compound 0.0949 µM, first compound 1 µM): 5.15%
- viability, T/C (second compound 0.0949 µM, first compound 3.16 µM): 6.85%
- viability, T/C (second compound 0.0949 µM, first compound 10 µM): 5.2%
- viability, T/C (second compound 0.3 µM, first compound 0.0316 µM): 3.61%
- viability, T/C (second compound 0.3 µM, first compound 0.1 µM): 5.05%
- viability, T/C (second compound 0.3 µM, first compound 0.316 µM): 4.72%
- viability, T/C (second compound 0.3 µM, first compound 1 µM): 5.49%
- viability, T/C (second compound 0.3 µM, first compound 3.16 µM): 7.45%
- viability, T/C (second compound 0.3 µM, first compound 10 µM): 4.66%
